Assay results from patent US20260274922A1, “SYNTHETIC ESTROGEN RECEPTOR (ER)-DERIVED PEPTIDE” (THE TEXAS A&M UNIVERSITY SYSTEM, priority 2023, published 2026).
Where a SMILES comes first, the peptide text is derived from it. The star is where a group is joined. Cbz = O=C(OCc1ccccc1)*

Tests used:
Assay type in all cases: cell-based
[1] = tested on: IRS1; experiment: IRS1 protein levels in ERα deficient mouse primary hepatocytes treated with MG132; details: ERαLivKO hepatocytes, 10 μM MG132 for 3 hours
Procedure: Representative blots are shown. […] Co-immunoprecipitation was performed.
Primary hepatocytes isolation and cell culture. Primary hepatocytes were isolated. Male mice at age of 8-12 weeks were infused with a perfusion buffer A (calcium and magnesium-free HBSS supplemented with 10 mM HEPES, 50 mM EGTA, 1 mM glucose, and 1% penicillin-streptomycin, pH 7.4) through portal vein for 6-8 min. Then perfusion buffer A was changed to buffer B (calcium and magnesium-free HBSS supplemented with 10 mM HEPES, 1 mM CaCl2), 1 mM glucose, 1% penicillin-streptomycin, and 0.5 mg/mL collagenase II, pH 7.4). […] Liver cells were suspended and passed through a 70 μm cell strainer, followed by centrifuge at 1700 rpm for 2 min. Pellets were resuspended with Percoll at final concentration of 36% and centrifuged at 1800 rpm for 6 min. The hepatocyte pellet was washed and suspended with DMEM supplemented with 10% FBS and 1% penicillin-streptomycin in collagen-coated plates. The HepG2 cell line was purchased from Abcam and cultured with DMEM medium supplemented with 10% FBS and 1% penicillin-streptomycin in collagen-coated plates. The human embryo kidney (HEK) 293 cell line was purchased from Sigma and cultured with DMEM medium supplemented with 10% FBS and 1% penicillin-streptomycin. […]
(§1) Co-immunoprecipitation and Western blotting analysis. […] Protein bands were detected using a ChemiDoc image system.

[2] = tested on: ERα mRNA; experiment: ERα mRNA expression in mouse primary hepatocytes treated with insulin; details: 200 nM insulin for 12 hours
Text: FIGS. 8A and 8B show the hyperinsulinemia decreases ERα mRNA expression in mouse primary hepatocytes. […] Data are presented as mean±SEM. * p<0.05, One-way ANOVA.
RNA extraction and quantitative real-time PCR. Total RNA was extracted from livers or primary hepatocytes using TRIzol (Invitrogen, Thermo Fisher Scientific), purified with chloroform, 80% ethanol, isopropanol, and RNA column, eluted with RNase free water, and reverse transcribed into cDNA using iScript Reverse Transcription Supermix (Bio-Rad, Hercules, CA). Quantitative real-time PCR (qPCR) was conducted using SsoAdvanced Universal SYBR Green Supermix (Bio-Rad, Hercules, CA) on CFX384 real-time PCR detection system (Bio-Rad, Hercules, CA). Q-PCR started with 95° C. incubation for 3 min, followed by 39 cycles of 95° C. for 5 s and 60° C. for 30 s. The threshold cycle (CT) values were obtained and used to calculate the relative transcriptional level of target genes by 2^−ΔΔCT method with Cyclophilin (Cyp) as an internal control. […].

[3] = biological target: T1, IRS1 (Homo sapiens, UniProt P35568); experiment: Immunofluorescence staining in HEK293T cells
T1 sequence (P35568 1-1242): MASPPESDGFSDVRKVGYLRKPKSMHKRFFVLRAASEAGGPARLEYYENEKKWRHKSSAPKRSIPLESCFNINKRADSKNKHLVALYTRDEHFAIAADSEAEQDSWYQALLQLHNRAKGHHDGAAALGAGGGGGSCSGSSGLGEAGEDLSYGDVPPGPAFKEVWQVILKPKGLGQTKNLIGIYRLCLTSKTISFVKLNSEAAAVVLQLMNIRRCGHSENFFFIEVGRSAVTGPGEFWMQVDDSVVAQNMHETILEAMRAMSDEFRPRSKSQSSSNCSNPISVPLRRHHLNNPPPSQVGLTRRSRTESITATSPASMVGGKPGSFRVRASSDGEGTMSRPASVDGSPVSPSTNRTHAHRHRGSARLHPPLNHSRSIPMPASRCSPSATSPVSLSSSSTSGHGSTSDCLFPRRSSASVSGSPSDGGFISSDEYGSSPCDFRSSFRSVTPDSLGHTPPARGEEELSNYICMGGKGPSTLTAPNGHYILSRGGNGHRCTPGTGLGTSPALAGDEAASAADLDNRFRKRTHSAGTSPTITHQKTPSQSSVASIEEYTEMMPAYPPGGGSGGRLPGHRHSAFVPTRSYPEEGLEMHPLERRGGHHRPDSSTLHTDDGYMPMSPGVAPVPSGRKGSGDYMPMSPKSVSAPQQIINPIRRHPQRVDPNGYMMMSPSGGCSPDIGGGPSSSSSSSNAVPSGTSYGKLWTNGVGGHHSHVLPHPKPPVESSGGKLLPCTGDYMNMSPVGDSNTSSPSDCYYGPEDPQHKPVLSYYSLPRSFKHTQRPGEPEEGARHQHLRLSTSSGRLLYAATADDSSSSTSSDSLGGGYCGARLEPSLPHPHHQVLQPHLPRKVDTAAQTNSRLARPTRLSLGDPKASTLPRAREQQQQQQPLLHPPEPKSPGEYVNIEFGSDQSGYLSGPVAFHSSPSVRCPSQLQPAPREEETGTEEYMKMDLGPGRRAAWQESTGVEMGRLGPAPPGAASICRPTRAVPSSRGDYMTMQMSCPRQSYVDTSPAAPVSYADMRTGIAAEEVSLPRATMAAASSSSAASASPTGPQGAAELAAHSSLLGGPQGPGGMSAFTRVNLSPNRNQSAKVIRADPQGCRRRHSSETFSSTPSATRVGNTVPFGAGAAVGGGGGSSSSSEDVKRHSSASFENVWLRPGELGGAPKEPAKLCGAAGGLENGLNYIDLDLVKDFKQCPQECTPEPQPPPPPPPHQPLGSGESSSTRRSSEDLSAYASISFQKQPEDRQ
Procedure: Immunofluorescence staining. Cells were fixed with 4% formaldehyde solution, followed by incubation with blocking buffer (1×PBS/5% normal serum/0.3% Triton X-100) for 1 h. After rinsing three times using PBS, cells were incubated with primary antibodies overnight at 4° C. Cells were washed with PBS and incubated with secondary antibodies (anti-mouse Alexa Flour 594 Conjugated) at room temperature 1-2 h. Cells were covered with DAPI-contained mounting medium. Fluorescent signal was observed using Confocal microscopy (Leica).

[4] = tested on: HepG2 cells (IRS1, pAKT); experiment: Gain-of-function of ERα domains on insulin sensitivity in HepG2 cells; details: overexpression
Procedure: Primary hepatocytes isolation and cell culture. Primary hepatocytes were isolated. Male mice at age of 8-12 weeks were infused with a perfusion buffer A (calcium and magnesium-free HBSS supplemented with 10 mM HEPES, […], 1 mM glucose, and 1% penicillin-streptomycin, pH 7.4) through portal vein for 6-8 min. Then perfusion buffer A was changed to buffer B (calcium and magnesium-free HBSS supplemented with 10 mM HEPES, 1 mM CaCl2), 1 mM glucose, 1% penicillin-streptomycin, and 0.5 mg/mL collagenase II, pH 7.4). […] Liver cells were suspended and passed through a 70 μm cell strainer, followed by centrifuge at 1700 rpm for 2 min. Pellets were resuspended with Percoll at final concentration of 36% and centrifuged at 1800 rpm for 6 min. The hepatocyte pellet was washed and suspended with DMEM supplemented with 10% FBS and 1% penicillin-streptomycin in collagen-coated plates. The HepG2 cell line was purchased from Abcam and cultured with DMEM medium supplemented with 10% FBS and 1% penicillin-streptomycin in collagen-coated plates. The human embryo kidney (HEK) 293 cell line was purchased from Sigma and cultured with DMEM medium supplemented with 10% FBS and 1% penicillin-streptomycin. FBS-free DMEM medium was used to culture cells during the experiments.
as §1

Molecule	colocalization with IRS1 [3]	enhancement of insulin-stimulated AKT phosphorylation [4]	increase in IRS1 [4]	further results
CC(C)C[C@@H](C=O)NC(=O)[C@H](CC(C)C)NC(=O)[C@H](CC(C)C)NC(=O)OCc1ccccc1 [MG132] (Cbz-Leu-Leu-Leu-aldehyde)				IRS1 protein levels [1]: significantly increased
insulin: insulin used to treat primary hepatocytes (200 nM)				mRNA expression levels of ERα [2]: significantly decreased
MTMTLHTKASGMALLHQIQGNELEPLNRPQLKIPLERPLGEVYLDSSKPAVYNYPEGAAY (Description of sequence: ER-alpha amino acids 1-60) [ERα 1-60, ERα amino acids 1-60 domain]	colocalization with IRS1	~ 26%	~ 80%	
TKASGMALLHEPLNRPQLKIPLERDSSKPAVYNY (Description of sequence: AF1 domain portion sequence) [34-amino acid-peptide, overexpressed in cells]	colocalization with IRS1	~ 26%	~ 80%	
ERα 60-280: ERα 60-280 domain, overexpressed in HepG2 cells (protein, UniProt P03372 60-280, looked up, fragment) YEFNAAAAANAQVYGQTGLPYGPGSEAAAFGSNGLGGFPPLNSVSPSPLMLLHPPPQLSPFLQPHGQQVPYYLENEPSGYTVREAGPPAFYRPNSDNRRQGGRERLASTNDKGSMAMESAKETRYCAVCNDYASGYHYGVWSCEGCKAFFKRSIQGHNDYMCPATNQCTIDKNRRKSCQACRLRKCYEVGMMKGGIRKDRRGGRMLKHKRQRDDGEGRGEV				IRS1 protein levels [4]: no significant effect; insulin-induced AKT phosphorylation [4]: no significant effect
